Reference: patent publication US9708267B2, “Activators of human pyruvate kinase” (The United States of America, as represented by the …, priority 2010, dated 2017)
Like-named read-outs stand apart in the source and are kept apart here.

Molecular target: hPK, M2 (Homo sapiens, UniProt P14618)
Test: luminescent pyruvate kinase-luciferase coupled assay (qHTS)
Format: biochemical
Details: for activation at 57 µM: % activation at 57 μM of compound, read-out: hPK, M2 Max. Res.; for Emax: read-out: Max. Res.
Method: AC50 values were determined utilizing the luminescent pyruvate kinase-luciferase coupled assay (Inglese, J. et al, Quantitative high-throughput screening: a titration-based approach that efficiently identifies biological activities in large chemical libraries. Proc. Natl. Acad. Sci. U.S.A. 2006, 103, 11473-11478).
Luminescent Pyruvate Kinase-Luciferase Coupled Assay.
Production of a luminescent signal based on the generation of ATP by pyruvate kinase was determined by using the ATP-dependent enzyme firefly luciferase. Three μL of substrate mix (at r.t.) in assay buffer (50 mM imidazole pH 7.2, 50 mM KCl, 7 mM MgCl2, 0.01% tween 20, 0.05% BSA) was dispensed into Kalypsys (San Diego, Calif., USA) white solid bottom 1,536 well microtiter plates using a bottle-valve solenoid-based dispenser (Kalypsys). The final concentrations of substrates in the assay were 0.1 mM ADP and 0.5 mM PEP. Twenty-three nL of compound in DMSO were delivered with a 1,536-pin array tool, and 1 μL of enzyme mix in assay buffer (final concentration, 0.1 nM pyruvate kinase, 50 mM imidazole pH 7.2, 0.05% BSA, 4° C.) was added. Microtiter plates were incubated at r.t. for 1 hour and 2 uL of luciferase detection mix (Kinase-Glo from Promega, Madison, Wis., USA) at 4° C. protected from light, was added and luminescence was read with a ViewLux (Perkin Elmer, Waltham, Mass., USA) using a 2 second exposure/plate (with 2× binning). The final concentration of DMSO was 0.5% and found not to affect the assay signal.
Data was normalized for AC50 values to control columns containing uninhibited enzyme (n), and AC100 inhibition (i) according the following equation: Activation (%)=[(c−n)/(n−i)]*100 where c=compound, n=DMSO neutral, i=no enzyme control. A % activity of 100% is approximately a 2-fold increase over basal assay signal (% Activation by FBP was variable but averaged 100%). Monitoring of activation was accomplished using enzyme at 3× the final concentration.
All compounds were screened using a qHTS approach, where compounds are assayed using at least seven concentrations to generate concentration-response curves for every compounds. Briefly, qHTS uses an inter-plate dilution method where the first plate contains the highest concentration of a set of compounds in DMSO, while subsequent plates contain the same compounds in the same well locations, but at successive lower concentrations. Using the protocol outlined above, the rate was calculated as a plate throughput of 18 plates/hr or approximately 7 samples/sec on the Kalypsys robotic system which means that a 7 point CRC was obtained every second on the robotic system.

[1] = Table 3, 0.1 mM ADP, 0.5 mM PEP, mean of three replicate experiments, read-out: hPK, M2 AC50
[2] = Table 3, mean of three replicate experiments
[3] = Table 4, maximum response (activation)
[4] = linkage variants of compound 4, read-out: AC50
[5] = Table 4, 0.1 mM ADP, 0.5 mM PEP, read-out: AC50

hPK, M2, sequence (P14618 whole entry): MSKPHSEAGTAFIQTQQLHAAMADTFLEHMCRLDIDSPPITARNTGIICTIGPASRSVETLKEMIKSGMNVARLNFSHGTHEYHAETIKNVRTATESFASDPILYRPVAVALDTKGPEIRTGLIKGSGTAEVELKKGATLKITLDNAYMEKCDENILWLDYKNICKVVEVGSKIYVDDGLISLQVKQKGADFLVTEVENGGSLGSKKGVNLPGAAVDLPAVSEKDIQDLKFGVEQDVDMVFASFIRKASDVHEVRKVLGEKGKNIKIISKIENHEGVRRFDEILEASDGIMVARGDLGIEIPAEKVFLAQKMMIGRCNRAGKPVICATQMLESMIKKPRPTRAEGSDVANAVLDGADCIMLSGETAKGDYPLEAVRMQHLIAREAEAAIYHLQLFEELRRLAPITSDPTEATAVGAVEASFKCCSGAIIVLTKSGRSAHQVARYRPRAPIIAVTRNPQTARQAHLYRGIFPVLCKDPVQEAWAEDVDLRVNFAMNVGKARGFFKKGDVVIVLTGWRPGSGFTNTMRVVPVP

AC50 [5] [nM] | Emax [3] [%] | SMILES | also measured
 |  | Cc1ccc(NS(=O)(=O)c2cc3c(cc2Cl)NC(=O)CO3)cc1C [Compound 37, 6-chloro-N-(3,4-dimethylphenyl)-3-oxo-3,4-dihydro-2H-benzo[b][1,4]oxazine-7-sulfonamide] | AC50 [1]: 580 nM; activation at 57 µM [2]: 95%
 |  | Cc1ccc(NS(=O)(=O)c2cc3c(cc2Br)NC(=O)CO3)cc1C [Compound 38, 6-bromo-N-(3,4-dimethylphenyl)-3-oxo-3,4-dihydro-2H-benzo[b][1,4]oxazine-7-sulfonamide] | AC50 [1]: 18000 nM; activation at 57 µM [2]: 103%
 |  | Cc1ccc(NS(=O)(=O)c2cc3c(cc2C)NC(=O)CO3)cc1C [Compound 39, N-(3,4-dimethylphenyl)-6-methyl-3-oxo-3,4-dihydro-2H-benzo[b][1,4]oxazine-7-sulfonamide] | AC50 [1]: 1200 nM; activation at 57 µM [2]: 106%
 |  | Cc1ccc(NS(=O)(=O)c2cc3c(cc2-c2ccccc2)NC(=O)CO3)cc1C [Compound 40, N-(3,4-dimethylphenyl)-3-oxo-6-phenyl-3,4-dihydro-2H-benzo[b][1,4]oxazine-7-sulfonamide] | AC50 [1]: 20600 nM; activation at 57 µM [2]: 36%
 |  | Cc1ccc(N(C)S(=O)(=O)c2ccc3c(c2)CCC(=O)N3)cc1C [Compound 41, N-(3,4-dimethylphenyl)-N-methyl-2-oxo-1,2,3,4-tetrahydroquinoline-6-sulfonamide] | Max. Res. [3]: 36.00; AC50 [4]: 23100 nM; Emax (linkage variants of compound 4): 36%
 |  | Cc1ccc(NC(=O)c2ccc3c(c2)CCC(=O)N3)cc1C [Compound 42, N-(3,4-dimethylphenyl)-2-oxo-1,2,3,4-tetrahydroquinoline-6-carboxamide] | Max. Res. [3]: 5; AC50 [4]: 40000 nM; Emax (linkage variants of compound 4): 5%
260 | 122 | Cc1ccc(NS(=O)(=O)c2ccc3c(c2)CCC(=O)N3)cc1Cl [Compound 43, N-(3-chloro-4-methylphenyl)-2-oxo-1,2,3,4-tetrahydroquinoline-6-sulfonamide] | 
2590 | 126 | O=C1CCc2cc(S(=O)(=O)Nc3ccc(Cl)c(Cl)c3)ccc2N1 [Compound 44, N-(3,4-dichlorophenyl)-2-oxo-1,2,3,4-tetrahydroquinoline-6-sulfonamide] | 
2910 | 109 | Cc1ccc(Cl)cc1NS(=O)(=O)c1cc2c(cc1Cl)CCC(=O)N2 [Compound 45, 6-chloro-N-(5-chloro-2-methylphenyl)-2-oxo-1,2,3,4-tetrahydroquinoline-7-sulfonamide] | 
9190 | 97 | N#Cc1cccc(NS(=O)(=O)c2ccc3c(c2)CCC(=O)N3)c1 [Compound 46, N-(3-cyanophenyl)-2-oxo-1,2,3,4-tetrahydroquinoline-6-sulfonamide] | 
18300 | 112 | CC(=O)N1c2ccc(S(=O)(=O)Nc3ccc(C)c(C)c3)cc2CC1C (centres unmarked) [Compound 47, 1-acetyl-N-(3,4-dimethylphenyl)-2-methylindoline-5-sulfonamide] | 
4610 | 94.6 | Cc1ccc(Cl)cc1NS(=O)(=O)c1cc2c(cc1F)NC(=O)CC2 [Compound 48, N-(5-chloro-2-methylphenyl)-7-fluoro-2-oxo-1,2,3,4-tetrahydroquinoline-6-sulfonamide] | 
650 | 112 | Cc1ccc(NS(=O)(=O)c2cc3c(cc2Cl)CCC(=O)N3)cc1Cl [Compound 49, 6-chloro-N-(3-chloro-4-methylphenyl)-2-oxo-1,2,3,4-tetrahydroquinoline-7-sulfonamide] | 
2590 | 118 | Cc1c(Cl)cccc1NS(=O)(=O)c1cc2c(cc1F)NC(=O)CC2 [Compound 50, N-(3-chloro-2-methylphenyl)-7-fluoro-2-oxo-1,2,3,4-tetrahydroquinoline-6-sulfonamide] | 
120 | 102 | Cc1ccc(NS(=O)(=O)c2cc3c(cc2F)NC(=O)CC3)cc1Cl [Compound 51, N-(3-chloro-4-methylphenyl)-7-fluoro-2-oxo-1,2,3,4-tetrahydroquinoline-6-sulfonamide] | 
820 | 99.3 | O=C1CCc2cc(S(=O)(=O)Nc3cccc(B(O)O)c3)ccc2N1 [Compound 52, 3-(2-oxo-1,2,3,4-tetrahydroquinoline-6-sulfonamido)phenylboronic acid] | 
370 | 121 | Cc1cc(NS(=O)(=O)c2ccc3c(c2)CCC(=O)N3)ccc1F [Compound 53, N-(4-fluoro-3-methylphenyl)-2-oxo-1,2,3,4-tetrahydroquinoline-6-sulfonamide] | 
3660 | 109 | O=C1CCc2cc(S(=O)(=O)Nc3ccc(Cl)c(Cl)c3)c(F)cc2N1 [Compound 54, N-(3,4-dichlorophenyl)-7-fluoro-2-oxo-1,2,3,4-tetrahydroquinoline-6-sulfonamide] | 
460 | 131 | Cc1ccc(NS(=O)(=O)c2ccc3c(c2)CCC(=O)N3)cc1F [Compound 55, N-(3-fluoro-4-methylphenyl)-2-oxo-1,2,3,4-tetrahydroquinoline-6-sulfonamide] | 
820 | 94.2 | Cc1cc(NS(=O)(=O)c2cc3c(cc2F)NC(=O)CC3)ccc1Cl [Compound 56, N-(4-chloro-3-methylphenyl)-7-fluoro-2-oxo-1,2,3,4-tetrahydroquinoline-6-sulfonamide] | 
920 | 108 | Cc1ccc(NS(=O)(=O)c2cc3c(cc2Cl)NC(=O)C3)cc1C [Compound 57, 6-chloro-N-(3,4-dimethylphenyl)-2-oxoindoline-5-sulfonamide] | 
410 | 96.5 | Cc1cc(NS(=O)(=O)c2ccc3c(c2)CCC(=O)N3)ccc1Cl [Compound 58, N-(4-chloro-3-methylphenyl)-2-oxo-1,2,3,4-tetrahydroquinoline-6-sulfonamide] | 
1160 | 109 | Cc1c(Cl)cccc1NS(=O)(=O)c1cc2c(cc1Cl)CCC(=O)N2 [Compound 59, 6-chloro-N-(3-chloro-2-methylphenyl)-2-oxo-1,2,3,4-tetrahydroquinoline-7-sulfonamide] | 
10300 | 117 | Cc1ccc(NS(=O)(=O)c2ccc3c(c2)C(Cl)(Cl)C(=O)N3)cc1C [Compound 60, 3,3-dichloro-N-(3,4-dimethylphenyl)-2-oxoindoline-5-sulfonamide] | 
5840 | 70.5 | Cc1ccc(NS(=O)(=O)c2cc3c(cc2N(C)CCN(C)C)NC(=O)CC3)cc1C [Compound 61, 7-((2-(dimethylamino)ethyl)(methyl)amino)-N-(3,4-dimethylphenyl)-2-oxo-1,2,3,4-tetrahydroquinoline-6-sulfonamide] | 
460 | 124 | Cc1ccc(NS(=O)(=O)c2cc3c(cc2N2CCCC2)NC(=O)CC3)cc1C [Compound 62, N-(3,4-dimethylphenyl)-2-oxo-7-(pyrrolidin-1-yl)-1,2,3,4-tetrahydroquinoline-6-sulfonamide] | 
8190 | 102 | Cc1ccc(NS(=O)(=O)c2cc3c(cc2N2CCC(N(C)C)C2)NC(=O)CC3)cc1C (centres unmarked) [Compound 63, 7-(3-(dimethylamino)pyrrolidin-1-yl)-N-(3,4-dimethylphenyl)-2-oxo-1,2,3,4-tetrahydroquinoline-6-sulfonamide] | 
